The text below walks through data of patent US20230043863A1, “HETEROAROMATIC DERIVATIVES FOR USE AS REGULATOR, PREPARATION METHOD THEREFOR AND USE THEREOF” (JIANGSU HANSOH PHARMACEUTICAL GROUP CO., LTD., priority 2018, published 2023).

One assay has as its target T1, JAK3 (Homo sapiens, UniProt P52333).
T1 sequence (P52333 1-1124): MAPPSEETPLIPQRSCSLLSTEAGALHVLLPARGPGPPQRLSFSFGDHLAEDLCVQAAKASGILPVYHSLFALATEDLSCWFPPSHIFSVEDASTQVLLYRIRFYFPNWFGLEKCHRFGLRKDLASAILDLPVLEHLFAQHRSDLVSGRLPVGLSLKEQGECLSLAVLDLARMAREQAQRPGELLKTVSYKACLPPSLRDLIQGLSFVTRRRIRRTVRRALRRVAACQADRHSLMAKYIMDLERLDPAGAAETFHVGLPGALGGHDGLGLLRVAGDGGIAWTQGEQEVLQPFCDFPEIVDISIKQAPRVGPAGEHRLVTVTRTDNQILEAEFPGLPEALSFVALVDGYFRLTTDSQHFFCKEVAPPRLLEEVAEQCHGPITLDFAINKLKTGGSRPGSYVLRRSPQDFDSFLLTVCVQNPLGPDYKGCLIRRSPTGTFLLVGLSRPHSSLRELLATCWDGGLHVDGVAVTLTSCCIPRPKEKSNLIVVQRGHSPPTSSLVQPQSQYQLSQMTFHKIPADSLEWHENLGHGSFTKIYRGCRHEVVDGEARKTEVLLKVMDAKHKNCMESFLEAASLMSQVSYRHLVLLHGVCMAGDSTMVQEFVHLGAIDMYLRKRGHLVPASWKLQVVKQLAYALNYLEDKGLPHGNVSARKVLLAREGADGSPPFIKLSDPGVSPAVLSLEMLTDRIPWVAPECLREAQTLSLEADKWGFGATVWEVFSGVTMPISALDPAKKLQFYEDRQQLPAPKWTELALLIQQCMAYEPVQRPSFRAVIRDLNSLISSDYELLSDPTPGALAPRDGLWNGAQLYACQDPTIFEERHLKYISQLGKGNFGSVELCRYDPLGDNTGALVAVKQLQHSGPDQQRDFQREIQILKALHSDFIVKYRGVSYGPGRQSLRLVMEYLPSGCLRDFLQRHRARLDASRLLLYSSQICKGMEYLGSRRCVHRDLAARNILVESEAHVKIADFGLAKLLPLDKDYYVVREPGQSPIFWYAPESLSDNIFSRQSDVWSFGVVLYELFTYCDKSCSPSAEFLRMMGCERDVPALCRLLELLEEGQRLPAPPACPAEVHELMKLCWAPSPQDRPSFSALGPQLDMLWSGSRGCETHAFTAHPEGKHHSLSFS
Briefly: JAK kinase activity inhibition, TR-FRET (JAK3). The assay is classed as biochemical. The settings on record: TR-FRET kinase assay. Here is the method:
(§1) Experimental objective: The objective of this test is to test the inhibitory effect of the compound on JAK kinase activity.
(§2) Experimental method: the fluorescence resonance energy transfer (TR-FRET) method was used to test the inhibitory effect of the compound on JAK kinase activity, and the half inhibitory concentration IC50 of the compound on JAK kinase activity was obtained.
(§3) Kinase reaction was carried out in a white 384-well plate (PerkinElmer). 1-5 μL of different concentrations of the compound diluted with DMSO and ddH2O was added into each well, and 1-5 μL of the corresponding solvent was added to the positive control wells, followed by addition of 0.1-20 nM JAK kinase solution diluted with 1-5 μL of kinase buffer (HEPES 50-250 mM, MgCl2 5-20 mM, etc.) was added to each well. 1-5 μL of kinase buffer was added to the negative control well. 1-5 μL of substrate mixture containing peptide substrate and ATP was added. The plate was incubated at room temperature for 0.5-5 hours. […], EDTA and detection solution containing labeled antibody was added, and then the plate was incubated at room temperature for another 1-24 hours. The fluorescence signal value at about 620 nm and 665 nm of each well was measured by BioTek Synergy H1 plate reader, and the inhibition rate was calculated by the fluorescence signal value. According to the inhibition rate of different concentrations, the IC50 of the compound was obtained by curve fitting.
(§4) The percentage inhibition data of the wells treated with the compound was calculated with the positive control wells (DMSO control wells) and negative control wells (no kinase added) on the plate {% inhibition rate=100-[(test compound value-negative control value)]/(Positive control value-negative control value)×100}. IC50 value was calculated by using GraphPad prism to fit the data of different concentrations and corresponding percentage inhibition rates to a 4-parameter non-linear logic formula.

The target of another assay is TYK2 (Homo sapiens, UniProt P29597). Description: JAK kinase activity inhibition, TR-FRET (TYK2). The assay is classed as biochemical. The settings on record: TR-FRET kinase assay. The method, boiled down: (§5)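 Enzymatic inhibition measured by time-resolved FRET using 0.1-20 nM kinase with peptide substrate and ATP, reacted 0.5-5 hours at room temperature. Percent inhibition was normalized to DMSO (no inhibitor) and kinase-free wells, and concentration-response data were fitted with a 4-parameter logistic model.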

In another assay the target is JAK1 (Homo sapiens, UniProt P23458). Briefly: JAK kinase activity inhibition, TR-FRET (JAK1). The assay is classed as biochemical. The settings on record: TR-FRET kinase assay. The method in brief: as §5
A general note: In TR-FRET formats the signal depends on donor and acceptor labels being close together.

In assay [1] the test system is JAK-STAT signal pathway of U266 cells. Description: Inhibition of cellular JAK-STAT signal pathway (STAT3 phosphorylation) in U266 cells. It counts as cell-based, human. The settings on record: Homo sapiens, U-266, INF-a 1000 U/mL stimulation. The method in brief:
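U266 cells (100-300 K/well) preincubated 2 h at room temperature with serially diluted compound, then stimulated 15 min with IFN-α at 1000 U/mL final. After lysis, STAT3 phosphorylation read by LANCE Ultra TR-FRET (Eu antibody 0.5 nM, ULight antibody 5 nM, overnight) at 665 nm; IC50 from 4-parameter fit of inhibition versus DMSO and negative controls.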

A further assay concerns the target JAK2 (Homo sapiens, UniProt O60674). Briefly: JAK kinase activity inhibition, TR-FRET (JAK2). It counts as biochemical. The conditions noted are these: TR-FRET kinase assay. On the procedure: as §1, §2, §3, §4
Assay [2] deals with C57BL/6 mouse colitis model induced by DSS. Description: C57BL/6 mouse colitis model induced by DSS, daily disease index. The conditions noted are these: po, 216 h, 10 mg/kg p.o. BID, Day 0-9, vs vehicle group, read-out: reduction ratio of DAI AUC. The assay is classed as in vivo. On the procedure:
To evaluate the drug efficacy of the embodiment compound on the C57BL/6 mouse colitis model induced by DSS (dextran sulfate sodium).
According to the weight of the animal, BioBook software was used to randomly group the animals on day −1 to ensure that the weight values of each group of animals were similar to reduce deviation, and the grouping and dosing regimen are shown in the following Table.
Drinking water containing DSS: an appropriate amount of DSS powder was dissolved in the autoclaved drinking water to prepare a 2% DSS solution.
On day −1, the animals were equally divided into 12 groups with 10 animals in each group. (Refer to Table 1 for specific grouping scheme)
From 9:00 on day 0 to 9:00 on day 6, the mice in groups 2 to 9 were given 2% DSS aqueous solution for 6 days (from day 0 to day 6), after which the mice were allowed to freely drink normal water for 3 days (from 9:00 on day 6 to before necropsy on day 9). The day of modeling was counted as day 0. The DSS aqueous solution was wrapped in tin foil to protect it from light. The DSS aqueous solution was replaced every 2 days.
The mice in group 1 are allowed to drink normal water freely for 9 days (from 9:00 on day 0 to before necropsy on day 9).
The recording frequency was once a day, and 4 levels were rated according to the following standards:
Bloody stool (0: negative; 4: positive);
Stool score (0: normal; 2: loose stool; 4: diarrhea)
Daily Disease Index (DAI) was obtained by dividing the sum the scores of the above 3 parts by 3. DAI-time (day) curve based on the daily DAI score was plotted, and the peak area (AUC) under the curve was calculated. The reduction ratio of DAI AUC was calculated by comparing the administration group with the vehicle group, with a calculation formula of (DAI AUCadministration group-DAI AUCvehicle)/DAI AUCVehicle×100%

JAK2, sequence (O60674 whole entry): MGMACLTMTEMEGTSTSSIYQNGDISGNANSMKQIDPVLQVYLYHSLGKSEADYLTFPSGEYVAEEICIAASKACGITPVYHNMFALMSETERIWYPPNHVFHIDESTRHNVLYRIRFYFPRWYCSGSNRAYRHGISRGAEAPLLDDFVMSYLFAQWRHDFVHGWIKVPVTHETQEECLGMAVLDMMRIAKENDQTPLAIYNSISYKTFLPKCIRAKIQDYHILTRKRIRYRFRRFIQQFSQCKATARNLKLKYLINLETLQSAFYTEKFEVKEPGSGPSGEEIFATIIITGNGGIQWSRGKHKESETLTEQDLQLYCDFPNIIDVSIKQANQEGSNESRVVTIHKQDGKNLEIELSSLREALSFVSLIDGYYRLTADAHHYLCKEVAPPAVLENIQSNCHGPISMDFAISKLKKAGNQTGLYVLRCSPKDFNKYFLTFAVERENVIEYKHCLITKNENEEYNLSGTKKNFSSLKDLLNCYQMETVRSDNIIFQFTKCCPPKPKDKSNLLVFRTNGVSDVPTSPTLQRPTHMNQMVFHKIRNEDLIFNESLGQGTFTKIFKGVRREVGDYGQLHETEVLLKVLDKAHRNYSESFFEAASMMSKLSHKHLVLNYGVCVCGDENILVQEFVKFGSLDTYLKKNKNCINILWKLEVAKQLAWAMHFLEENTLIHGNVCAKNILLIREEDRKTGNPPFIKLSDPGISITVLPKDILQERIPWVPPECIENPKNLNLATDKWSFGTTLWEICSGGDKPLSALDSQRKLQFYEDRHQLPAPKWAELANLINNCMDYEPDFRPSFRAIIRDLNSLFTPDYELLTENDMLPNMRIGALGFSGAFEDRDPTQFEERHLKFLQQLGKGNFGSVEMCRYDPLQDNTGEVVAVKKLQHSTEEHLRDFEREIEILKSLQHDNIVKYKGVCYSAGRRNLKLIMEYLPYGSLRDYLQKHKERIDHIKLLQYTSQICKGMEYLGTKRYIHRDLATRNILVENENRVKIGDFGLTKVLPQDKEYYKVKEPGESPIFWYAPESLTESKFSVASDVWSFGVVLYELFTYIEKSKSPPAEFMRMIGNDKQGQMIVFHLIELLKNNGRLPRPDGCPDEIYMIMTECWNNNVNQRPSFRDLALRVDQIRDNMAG
TYK2, sequence (P29597 whole entry): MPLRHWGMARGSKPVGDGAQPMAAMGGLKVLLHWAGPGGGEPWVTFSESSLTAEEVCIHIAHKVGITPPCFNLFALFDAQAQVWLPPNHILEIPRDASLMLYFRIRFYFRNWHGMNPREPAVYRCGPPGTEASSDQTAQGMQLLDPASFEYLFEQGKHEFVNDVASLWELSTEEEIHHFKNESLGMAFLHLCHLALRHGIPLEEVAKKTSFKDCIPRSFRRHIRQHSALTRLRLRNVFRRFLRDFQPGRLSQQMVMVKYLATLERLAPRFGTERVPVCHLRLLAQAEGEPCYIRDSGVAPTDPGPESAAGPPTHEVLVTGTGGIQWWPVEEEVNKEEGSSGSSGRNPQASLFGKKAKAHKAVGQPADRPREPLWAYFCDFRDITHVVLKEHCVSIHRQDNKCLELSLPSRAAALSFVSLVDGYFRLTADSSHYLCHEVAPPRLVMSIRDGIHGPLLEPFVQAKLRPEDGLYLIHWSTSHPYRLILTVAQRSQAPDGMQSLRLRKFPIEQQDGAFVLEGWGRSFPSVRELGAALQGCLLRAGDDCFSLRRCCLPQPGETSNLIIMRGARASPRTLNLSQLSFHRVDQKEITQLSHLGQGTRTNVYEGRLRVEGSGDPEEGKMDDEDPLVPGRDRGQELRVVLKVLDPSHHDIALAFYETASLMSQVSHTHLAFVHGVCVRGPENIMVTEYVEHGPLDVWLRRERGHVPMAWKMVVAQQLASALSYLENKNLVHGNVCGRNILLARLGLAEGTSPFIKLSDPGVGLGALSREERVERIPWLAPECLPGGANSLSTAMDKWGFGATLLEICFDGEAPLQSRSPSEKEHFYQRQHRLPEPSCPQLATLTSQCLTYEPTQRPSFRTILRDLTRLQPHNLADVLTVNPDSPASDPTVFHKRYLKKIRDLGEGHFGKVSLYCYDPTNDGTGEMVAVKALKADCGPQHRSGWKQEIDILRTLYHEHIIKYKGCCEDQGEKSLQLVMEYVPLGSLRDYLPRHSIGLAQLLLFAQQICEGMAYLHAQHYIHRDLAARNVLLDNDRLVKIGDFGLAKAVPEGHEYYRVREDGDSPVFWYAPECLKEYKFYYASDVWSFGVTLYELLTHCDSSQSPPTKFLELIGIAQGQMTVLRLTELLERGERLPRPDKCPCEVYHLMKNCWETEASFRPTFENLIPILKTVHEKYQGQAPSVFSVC
JAK1, sequence (P23458 whole entry): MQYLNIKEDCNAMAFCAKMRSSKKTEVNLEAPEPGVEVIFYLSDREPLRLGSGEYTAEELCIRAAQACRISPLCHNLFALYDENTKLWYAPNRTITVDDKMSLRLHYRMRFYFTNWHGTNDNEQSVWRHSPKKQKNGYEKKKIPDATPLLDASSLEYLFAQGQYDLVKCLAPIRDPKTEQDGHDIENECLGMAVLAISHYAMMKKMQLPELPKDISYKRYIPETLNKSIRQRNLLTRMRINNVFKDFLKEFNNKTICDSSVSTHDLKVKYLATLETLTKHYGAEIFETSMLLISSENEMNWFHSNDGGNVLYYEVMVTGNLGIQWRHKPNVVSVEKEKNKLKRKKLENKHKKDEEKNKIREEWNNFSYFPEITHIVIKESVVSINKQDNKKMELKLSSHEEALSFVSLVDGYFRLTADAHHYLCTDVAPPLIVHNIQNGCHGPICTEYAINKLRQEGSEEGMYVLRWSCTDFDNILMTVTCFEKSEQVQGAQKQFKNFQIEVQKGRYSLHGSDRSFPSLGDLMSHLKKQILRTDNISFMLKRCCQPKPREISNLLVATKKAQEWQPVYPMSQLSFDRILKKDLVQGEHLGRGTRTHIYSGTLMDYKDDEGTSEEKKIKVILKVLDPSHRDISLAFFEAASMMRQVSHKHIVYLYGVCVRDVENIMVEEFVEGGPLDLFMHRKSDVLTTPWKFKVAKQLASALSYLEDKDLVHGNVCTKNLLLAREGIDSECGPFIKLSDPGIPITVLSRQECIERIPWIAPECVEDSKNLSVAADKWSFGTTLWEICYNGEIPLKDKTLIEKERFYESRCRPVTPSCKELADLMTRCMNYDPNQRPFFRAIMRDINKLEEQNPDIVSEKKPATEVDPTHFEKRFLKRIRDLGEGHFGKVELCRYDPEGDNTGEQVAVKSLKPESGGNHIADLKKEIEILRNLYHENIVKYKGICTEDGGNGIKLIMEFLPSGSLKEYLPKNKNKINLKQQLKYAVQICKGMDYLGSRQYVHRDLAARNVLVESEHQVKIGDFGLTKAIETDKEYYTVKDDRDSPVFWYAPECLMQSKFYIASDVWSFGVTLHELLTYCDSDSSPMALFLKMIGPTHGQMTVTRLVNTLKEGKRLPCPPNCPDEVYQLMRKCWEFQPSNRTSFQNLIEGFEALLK

By IC50 is commonly meant the concentration at which inhibition is half-maximal. With `Cc1cc(Nc2nc(N(C)[C@@H]3C[C@H]4CC[C@@H](C3)N4S(=O)(=O)N3CC(C#N)C3)nc3sccc23)n[nH]1` [Embodiment 241, 1-(((3-exo)-3-(methyl(4-((5-methyl-1H-pyrazol-3-yl)amino)thieno[2,3-d]pyrimidin-2-yl)amino)-8-azabicyclo[3.2.1]oct-8-yl)sulfonyl)azetindin-3-formonitrile], the IC50 was 7.35 nM on JAK3; 0.22 nM at TYK2; 0.15 nM at JAK1; 115 nM in assay [1]; 1.39 nM at JAK2.

With `COc1ccc2c(Nc3cc(C)[nH]n3)nc(N(C)[C@@H]3C[C@H]4CC[C@@H](C3)N4S(=O)(=O)N3CC(C#N)C3)nc2c1` [Embodiment 218, 1-(((3-exo)-3-((7-methoxyl-4-((5-methyl-1H-pyrazol-3-yl)amino)quinazolin-2-yl)(methyl)amino)-8-azabicyclo[3.2.1]oct-8-yl)sulfonyl)azetindin-3-formonitrile], the IC50 on JAK3 worked out at 19.6 nM; on TYK2, 0.4 nM; on JAK1, 0.27 nM; in assay [1], 61.5 nM; on JAK2, 1.05 nM.

In the case of `Cc1cc(Nc2nc(N[C@@H]3C[C@H]4CC[C@@H](C3)N4CCC#N)nc3cc[nH]c23)n[nH]1` [Embodiment 40, 3-((3-exo)-3-((4-((5-methyl-1H-pyrazol-3-yl)amino)-5H-pyrrolo[3,2-d]pyrimidin-2-yl)amino)-8-azabicyclo[3.2.1]oct-8-yl)pronionitrile], the IC50 at JAK3 came out at 8.78 nM; at TYK2, 1.01 nM; on JAK1 it was 0.83 nM; in assay [1], 17.4 nM; at JAK2 it was 0.77 nM.

On to `Cc1cc(Nc2cc3ncccc3c(N[C@@H]3C[C@@H]4CN(CCC#N)C[C@@H]4C3)n2)n[nH]1` [Embodiment 5, 3-(cis-5-((7-((5-methyl-1H-pyrazol-3-yl)amino)-1,6-diazanaphthalen-5-yl)amino)hexahydrocyclopentadieno[c]pyrrole-2(1H)-yl)propionitrile], for which the half-maximal inhibitory concentration (IC50) at JAK3 is 26.5 nM; on TYK2, 4.44 nM; at JAK1, 0.85 nM; in assay [1] it was 4.12 nM; on JAK2 it was 1.39 nM.

Take `Cc1cc(Nc2nc(N[C@@H]3C[C@H]4CC[C@@H](C3)N4CCC#N)nc3sccc23)n[nH]1` [Embodiment 62, 3-((3-exo)-3-((4-((5-methyl-1H-pyrazol-3-yl)amino)thieno[2,3-d]pyrimidin-2-yl)amino)-8-azabicyclo[3.2.1]oct-8-yl)propionitrile]: the results for the IC50 (on TYK2; on JAK1; in assay [1]) were 0.17 nM, 0.08 nM and 1.9 nM, respectively. For the same compound, in assay [2], the change in vivo at 10 mg/kg was -32.2%.

Regarding `CN(c1nc(Nc2cc(CO)[nH]n2)c2ccsc2n1)[C@@H]1C[C@H]2CCC[C@@H](C1)N2S(=O)(=O)N1CC(C#N)C1` [Embodiment 132, 1-(((3-exo)-3-((4-((5-(hydroxymethyl)-1H-pyrazol-3-yl)amino)thieno[2,3-d]pyrimidin-2-yl)(methyl)amino)-9-azabicyclo[3.3.1]non-9-yl)sulfonyl)azetindin-3-formonitrile], the 50% inhibitory concentration (IC50) at JAK3 came to 3.43 nM; on TYK2, 0.42 nM; on JAK1 it was 0.1 nM; in assay [1], 23.8 nM; at JAK2, 0.77 nM.
